These results are taken from PubChem BioAssay (NCI).

What all share (experiment): DTP human tumour cell line panel, 48 h
The test system of assay [1] is BT-549 breast.
Assay [2] has as its system CAKI-1 renal.
In assay [3] the test system is EKVX NSCLC.
Assay [4] relates to HOP-92 NSCLC.
Assay [5] relates to K-562 leukemia.
For assay [6], the system named is KM12 colon.
Assay [7] has as its system LOX IMVI melanoma.
Assay [8] deals with PC-3 prostate.
Assay [9] has as its system SF-295 CNS.
In assay [10] the test system is SK-MEL-2 melanoma.
Assay [11] deals with SK-OV-3 ovarian.
Assay [12] has as its system SN12C renal.
The test system of assay [13] is T-47D breast.
Assay [14] relates to TK-10 renal.
Assay [15] concerns UACC-257 melanoma.
In assay [16] the test system is UO-31 renal.

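96-well plates; 48 h exposure; 5 concentrations. Endpoints by linear interpolation between flanking doses. Not reached: highest tested concentration assigned. TGI marks complete inhibition of growth.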 A value given as a limit tells only on which side of the number the result lay.

On to `CC1=CC(=O)c2cccc(O)c2C1=O`, for which the TGI (in general, the concentration at which net growth stops) in assay [1] stood at 3.13 µM; in assay [2], 3.29 µM; in assay [3], 8.68 µM; in assay [4], 3.29 µM; in [5], 20 µM; in assay [6], 25.3 µM. The TGI in assay [7] stood at 8.6 µM; in assay [8] it was 5.7 µM; in assay [9], 27.7 µM; in [10] it was 4.57 µM; in assay [11] it was 27.4 µM; in [12] it was 5.11 µM. Besides, the TGI in assay [13] worked out at 3.72 µM; in [14], 5.05 µM; in [15] it was 3.36 µM; in [16], 3.28 µM.

`CC(C)Nc1n[nH]c(=O)n1C(C)C`: the TGI in assay [1], in assay [2], in assay [3], in assay [4], in assay [5] and in [6] was over 100 µM in each case. Besides, the TGI in [7], in assay [8], in [9], in [10], in assay [11] and in [12] was over 100 µM in each case. Further, the TGI in [13], in assay [14], in assay [15] and in assay [16] was over 100 µM throughout.

For the compound `COc1ccc(Oc2nc3cc(C(F)(F)F)ccc3nc2C(C)C)cc1`, the TGI in assay [1] is 65.8 µM; in assay [2], over 100 µM; in assay [3], 50.1 µM; in assay [4], 54.9 µM; in [5], 86.7 µM; in assay [6], over 100 µM. Further, the TGI in assay [7] is 30.5 µM; in assay [8] it was over 100 µM; in assay [9], 51 µM; in assay [10], 38.5 µM; in assay [11] it was over 100 µM; in assay [12], 59.7 µM. In addition, the TGI in [13] is 54.4 µM; in [14], over 100 µM; in assay [15], 73.9 µM; in assay [16], 95 µM.

As for `CC1(C)C2CCC1(C)C(NC(=O)CCN1CCOCC1)C2` (stereo unspecified), the TGI in assay [1], in [2], in assay [3], in assay [4], in assay [5] and in [6] was over 100 µM in each case. Moreover, the TGI in assay [8], in assay [9], in assay [11], in assay [12], in assay [13] and in assay [14] was over 100 µM each time. Besides, the TGI in [15] and in assay [16] was over 100 µM each time.

On to `O=C(CCNC(=O)OCc1ccccc1)OCCCNC(=O)OCc1ccccc1`, for which the TGI in assay [1], in [4], in assay [5], in assay [6], in [7] and in [8] was over 100 µM throughout. Besides, the TGI in assay [9], in assay [11], in assay [12], in assay [13], in assay [14] and in assay [15] was over 100 µM throughout. In assay [16], this compound yielded a TGI of over 100 µM.

Turning to `c1csc(-c2cc(-c3ccsc3)c(-c3cccs3)s2)c1`, the TGI in assay [1], in [2], in assay [3], in assay [4], in [5] and in assay [6] was over 100 µM throughout. The TGI in assay [8], in assay [9], in assay [12], in assay [13], in [14] and in assay [15] was over 100 µM each time. In assay [16], this compound showed a TGI of over 100 µM.

In the case of `C1CSCCSS[C@@H]2CCCCC2SC1` (stereo partly specified), the TGI is over 100 µM in assay [1]; over 100 µM in assay [3]; 97.8 µM in [4]; over 100 µM in assay [5]; over 100 µM in [6]; over 100 µM in [7]. Besides, the TGI in assay [8], in assay [9], in [11], in assay [12], in [13] and in assay [14] was over 100 µM throughout. For the same compound, the TGI in [15] and in [16] was over 100 µM each time.

For `O=C(CN1CCOCC1)NC1=Nc2ncccc2C(=O)NN1`, the TGI in assay [1], in assay [3], in [4], in [5], in [6] and in assay [7] was over 10 µM each time. Besides, the concentration for total growth inhibition (TGI) in [8], in [9], in assay [10], in [11], in assay [12] and in assay [13] was over 10 µM throughout. Moreover, the TGI in assay [14], in [15] and in [16] was over 10 µM each time.

`C[C@H](C(=O)N1C(=O)O[C@@H](c2ccccc2)[C@H]1C)[C@H](c1ccccc1)N(Cc1ccccc1)OC(=O)c1ccccc1`: the total growth inhibition concentration (TGI) in [1], in assay [2], in assay [4], in assay [5], in assay [6] and in assay [7] was over 100 µM throughout. For the same compound, the TGI was over 100 µM in assay [8]; 90.9 µM in assay [9]; 73.7 µM in assay [10]; over 100 µM in [11]; over 100 µM in assay [12]; over 100 µM in [13]. The TGI in [14], in assay [15] and in [16] was over 100 µM throughout.

For the compound `COc1cc(C(CN)N(C)C)cc(OC)c1OC` (stereo unspecified), the TGI in assay [1], in assay [2], in assay [3], in assay [4], in assay [5] and in assay [6] was over 100 µM each time. Further, the TGI in [7], in [8], in [9], in assay [11], in assay [12] and in [13] was over 100 µM in each case. Also, the TGI in [14], in assay [15] and in assay [16] was over 100 µM each time.

In the case of `CNC(=O)OC(C)CN1c2ccccc2Sc2ccccc21` (stereo unspecified), the TGI in assay [1], in [2], in assay [3], in assay [4], in [5] and in assay [6] was over 100 µM in each case. Also, the TGI in assay [7], in assay [8], in [9], in assay [11], in [12] and in [13] was over 100 µM throughout. The TGI in assay [14], in assay [15] and in assay [16] was over 100 µM in each case.

As for `O=c1oc2ccccc2c(O)c1C(c1ccc([N+](=O)[O-])cc1)c1c(O)c2ccccc2oc1=O`, the TGI in assay [1], in [2], in [3], in [4], in assay [6] and in assay [7] was over 100 µM in each case. In addition, the TGI in assay [8], in assay [10], in assay [12], in assay [13], in assay [14] and in assay [15] was over 100 µM throughout. Moreover, the TGI in assay [16] was over 100 µM.

With `O=C1CC(CC(O)C(O)CO)CC(=O)N1` (stereo unspecified), the TGI in assay [1], in assay [2], in [3], in [4], in [5] and in assay [6] was over 100 µM each time. Moreover, the concentration for total growth inhibition (TGI) in assay [7], in assay [8], in assay [9], in [12], in [13] and in [14] was over 100 µM each time. Besides, the TGI in assay [15] and in assay [16] was over 100 µM throughout.

Consider `CN(C)CCCNC(=O)c1cc(NC(=O)CCCn2c3ccccc3c3ccccc32)cn1C`, for which the TGI is over 100 µM in assay [1]; over 100 µM in assay [2]; 92 µM in assay [3]; 9.32 µM in assay [4]; over 100 µM in assay [5]; over 100 µM in assay [6]. For the same compound, the TGI in [7], in assay [8], in [9], in [10], in assay [11] and in assay [12] was over 100 µM in each case. Moreover, the TGI is 75.2 µM in assay [13], 82 µM in [14] and over 100 µM in [16].

As for `CCOC(=O)C1=C(C)N(Cc2ccc(Cl)cc2Cl)C2(O)C(OC)CC(=O)C3C(=O)N(c4ccccc4)C(=O)C132` (stereo unspecified), the TGI in assay [1] came to 5.61 µM; in assay [2], 19.5 µM; in assay [3] it was 16.7 µM; in assay [4], 7.95 µM; in assay [5], 3.87 µM; in [6] it was 9.03 µM. The TGI in assay [7] came out at 2.23 µM; in [8], 15.1 µM; in assay [9], 20.2 µM; in [10] it was 7.01 µM; in [12], 9.9 µM; in assay [13], 2.57 µM. The TGI in [14] was found to be 22.8 µM; in assay [15] it was 18.2 µM; in assay [16] it was 18.7 µM.

For the compound `Cc1nc(SCC(=O)Nc2ccccc2)c2sc(=S)n(-c3ccccc3)c2n1`, the TGI in assay [1], in assay [2], in [3], in [4], in assay [6] and in [7] was over 10 µM in each case. Further, the TGI in [8], in assay [9], in assay [10], in assay [11], in assay [12] and in [13] was over 10 µM each time. Moreover, the TGI in [14] and in [15] was over 10 µM each time.

Turning to `N#CC1(C#N)C(c2ccccc2)NC23CCCCC2C1(C#N)C(=O)N3` (stereo unspecified), the concentration for total growth inhibition (TGI) in [1], in assay [2], in assay [3], in assay [4], in assay [5] and in [6] was over 100 µM each time. Besides, the TGI in [8], in assay [9], in assay [10], in assay [11], in assay [12] and in [13] was over 100 µM throughout. Further, the total growth inhibition concentration (TGI) in assay [15] and in assay [16] was over 100 µM throughout.

As for `COc1cc(CSc2ccc(O)cc2)cc(O)c1O`, the TGI was 63.6 µM in [1]; 91.2 µM in assay [2]; over 100 µM in [3]; 50.4 µM in assay [4]; over 100 µM in assay [5]; 91.9 µM in assay [6]. Also, the TGI was over 100 µM in assay [7]; over 100 µM in [8]; 51.6 µM in assay [9]; 79.1 µM in assay [10]; 80.5 µM in assay [12]; 53.4 µM in assay [13]. The TGI in assay [14], in assay [15] and in [16] was over 100 µM throughout.

Regarding `Cc1nnc2nc(-c3ccc(Cl)cc3Cl)cc(-c3ccc(Cl)cc3)n12`, the total growth inhibition concentration (TGI) in [1] was over 100 µM; in assay [2], over 100 µM; in assay [4], 37.7 µM; in [5] it was over 100 µM; in [6] it was over 100 µM; in assay [7], over 100 µM. Further, the TGI in assay [8], in assay [9], in assay [11], in assay [12], in assay [13] and in assay [14] was over 100 µM throughout. The TGI in assay [15] and in assay [16] was over 100 µM in each case.
